Drawing on patent publication EP1268487B1, “TRICYCLIC PROTEIN KINASE INHIBITORS” (Wyeth, priority 2000, dated 2001), this text covers IC50 and inhibition for one molecule.

Converted amounts (≈) assume the structure as drawn.

What is called IC50 is the midpoint of a concentration-inhibition curve. As a reminder, the inhibition is the share of the control response that was lost under treatment.

The test system of one assay is SKBR3. The assay is described as follows: Inhibition of cancer cell growth as measured by cell number (Sulforhodamine B). The assay is classed as cell-based. The settings on record: Homo sapiens, SK-BR-3; 48 hours exposure. As for the experimental part: (§1) Human tumor cell lines were plated in 96-well plates (250 µl/well, 1-6 x 10^4 cells/ml) in RPMI 1640 medium, containing 5% FBS (Fetal Bovine Serum). […] After 48 hours exposure to test compounds, cells were fixed with trichloroacetic acid, and stained with Sulforhodamine B. After washing with trichloroacetic acid, bound dye was solubilized in 10 mM Tris base and optical density was determined using a plate reader. Under conditions of the assay the optical density is proportional to the number of cells in the well. IC50s (concentrations causing 50% inhibition of cell growth) were determined from the growth inhibition plots. The test procedure is described in details by Philip Skehan et. al, J.Natl. Canc. Inst., 82, 1107-1112 (1990). […] Information about some of the cell lines used in these test procedures is available from the American Type Tissue Collection: Cell Lines and Hybridomas, 1994 Reference Guide, 8th Edition. The Her2Neu cell line is a 3T3 line that has been transfected with Her2 receptor kinase.

A further assay has as its system MDA435. Described as above. The assay is classed as cell-based. The settings on record: Homo sapiens, 48 hours exposure. As for the experimental part: as §1
The subject of a further assay is 3T3. The description is as above. The assay is classed as cell-based. The settings on record: Mus musculus, NIH3T3; 48 hours exposure. On the procedure: as §1
A further assay has as its system SW620. Described as above. The class given is cell-based. The settings on record: Homo sapiens, SW-620; 48 hours exposure. On the procedure: as §1
The subject of another assay is Her2Neu. The description is as above. The class given is cell-based. The settings on record: 48 hours exposure; 3T3 line transfected with Her2 receptor kinase. On the procedure:
as §1

The next assay has as its system A431. The description is as above. The assay is classed as cell-based. As to conditions: Homo sapiens, A-431; 48 hours exposure. On the procedure: as §1
In assay [1] the target is T1, Epidermal Growth Factor Receptor Kinase (EGF-R) (Homo sapiens, UniProt P00533).
T1 construct: containing the EGFR cDNA encoding amino acids 645 - 1186 preceded by Met-Ala-(His)6; Met-Ala-(His)6 (N); made in house; host or cells: Sf9 insect cells (baculovirus vHcEGFR52)
The assay is described as follows: Inhibition of Epidermal Growth Factor Receptor Kinase (EGF-R) using recombinant enzyme. The class given is biochemical. As for the experimental part:
Representative test compounds were evaluated for their ability to inhibit the phosphorylation of the tyrosine residue of a peptide substrate catalyzed by the enzyme epidermal growth factor receptor kinase. The peptide substrate (RR-SRC) has the sequence arg-arg-leu-ile-glu-asp-ala-glu-tyr-ala-ala-arg-gly. The enzyme used in this assay is the His-tagged cytoplasmic domain of EGFR. A recombinant baculovirus (vHcEGFR52) was constructed containing the EGFR cDNA encoding amino acids 645 - 1186 preceded by Met-Ala-(His)6. Sf9 cells in 100 mm plates were infected at an moi of 10 pfu/cell and cells were harvested 48 hours post infection. A cytoplasmic extract was prepared using 1% Triton X-100 and applied to Ni-NTA column. After washing the column with 20 mM imidazole, HcEGFR was eluted with 250 mM imidazole (in 50 mM Na2HPO4, pH 8.0, 300 mM NaCl). Fractions collected were dialyzed against 10 mM HEPES, pH 7.0, 50 mM NaCl, 10% glycerol, 1µg/mL antipain and leupeptin and 0.1 mM Pefabloc SC. The protein was frozen in dry ice/methanol and stored -70° C.
Test compounds were made into 10 mg/mL stock solutions in 100% dimethylsulfoxide (DMSO). Prior to experiment, stock solutions were diluted to 500 µM with 100% DMSO and then serially diluted to the desired concentration with HEPES buffer (30 mM HEPES pH 7.4).
For the enzyme reaction, 10 µL of each inhibitor (at various concentrations) were added to each well of a 96-well plate. To this was added 3 µL of enzyme (1:10 dilution in 10mM HEPES, pH 7.4 for final conc. of 1:120). This was allowed to sit for 10 minutes on ice and was followed by the addition of 5 µl peptide (80 uM final conc.), 10µl of 4X Buffer (Table A), 0.25 µL ^33P-ATP and 12 µL H2O. The reaction was allowed to run for 90 minutes at room temperature and was followed by spotting the entire volume on to precut P81 filter papers. The filter discs were washed 2X with 0.5% phosphoric acid and radioactivity was measured using a liquid scintillation counter. Table A
The inhibition data for representative compounds of the invention are shown below in TABLE 1. The IC50 is the concentration of test compound needed to reduce the total amount of phosphorylated substrate by 50%. The % inhibition of the test compound was determined for at least three different concentrations and the IC50 value was evaluated from the dose response curve. […] CPM(control) is in units of counts per minute and was a number expressing the amount of radiolabeled ATP (γ-^33P) incorporated into the RR-SRC peptide substrate by the enzyme after 90 minutes at room temperature in the absence of test compound as measured by liquid scintillation counting. The CPM values were corrected for the background counts produced by ATP in the absence of the enzymatic reaction. Where it was possible to determine an IC50 value, this is reported in TABLE 1 otherwise the % inhibition at 0.5 µM concentration of test compound is shown in TABLE 1.

T1 sequence (P00533 669-1210): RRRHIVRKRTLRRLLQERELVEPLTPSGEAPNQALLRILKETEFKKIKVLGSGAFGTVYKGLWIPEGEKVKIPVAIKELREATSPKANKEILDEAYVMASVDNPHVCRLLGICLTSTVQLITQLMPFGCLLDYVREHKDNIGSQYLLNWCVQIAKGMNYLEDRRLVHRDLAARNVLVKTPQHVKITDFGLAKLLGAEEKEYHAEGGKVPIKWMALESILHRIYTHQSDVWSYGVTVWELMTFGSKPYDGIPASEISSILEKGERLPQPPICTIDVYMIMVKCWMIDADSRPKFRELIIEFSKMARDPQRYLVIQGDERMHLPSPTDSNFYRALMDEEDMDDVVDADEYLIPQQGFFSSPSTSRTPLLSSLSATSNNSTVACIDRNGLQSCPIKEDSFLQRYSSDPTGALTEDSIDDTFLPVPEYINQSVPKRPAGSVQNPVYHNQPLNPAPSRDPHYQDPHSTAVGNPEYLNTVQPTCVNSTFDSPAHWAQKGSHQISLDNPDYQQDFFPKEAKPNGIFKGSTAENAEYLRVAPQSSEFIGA

Consider `N#Cc1cnc2cc3c(cc2c1Nc1ccc(F)c(Cl)c1)NCCO3` [Example 7, 9-(3-Chloro-4-fluoroanilino)-2,3-dihydro-1H-[1,4]oxazino[3,2-g]quinoline-8-carbonitrile], for which the IC50 in the assay on SKBR3 was 0.968 µg/mL (≈ 2.73 µM); in the assay with MDA435, 1.43 µg/mL (≈ 4.03 µM); with 3T3, 3.02 µg/mL (≈ 8.51 µM); with SW620, 2.9 µg/mL (≈ 8.17 µM); in the assay on Her2Neu, 3.9 µg/mL (≈ 11 µM); in the assay with A431, 0.527 µg/mL (≈ 1.49 µM). In assay [1] (recombinant enzyme), the IC50 came to 1000 nM. Besides, in assay [1] (0.5 µM concentration of test compound), the inhibition at 0.5 µM is 35.5%.
